# Biological target: T1, MAP4K3 (GLK) (Homo sapiens, UniProt Q8IVH8)
# T1 construct: purchased Thermo Fisher Scientific (Life Technologies) SelectScreen
# Assay: SelectScreen LanthaScreen
# Format: binding
# Conditions: 1 µM
# Protocol: The in vitro kinase selectivity of NU5455 was determined using the SelectScreen Broad Assay Panel (Thermo Fisher Scientific) involving activity and binding assays (Supplemental Table 1). […] Class IA PI3Ks were measured using the p85α subunit.
# Kinase [ATP] % Assay Kinase [ATP] % Assay Kinase [ATP] % Assay Kinase [ATP] % Assay
# DNA-PK Km app 98.3 Z LATS2 n/a 4.7 L KIT D820E n/a 1.3 L GSK3B (GSK3 beta) Km app -2.5 Z
# PIK3C3 (hVPS34) Km app 85.9 A PRKCZ (PKC zeta) Km app 4.7 Z GRK1 n/a 1.3 L BMPR2 n/a -2.5 L
# PIK3C2B (PI3K-C2 beta) 10 28.9 A FGFR1 Km app 4.7 Z BRSK2 n/a 1.2 L CDC42 BPB (MRCKB) Km app -2.5 Z
# SNF1LK2 Km app 26.6 Z MINK1 Km app 4.6 Z NUAK1 (ARK5) Km app 1.2 A AMPK (A2/B2/G2) n/a -2.6 L
# HCK Km app 18.0 Z CSF1R (FMS) Km app 4.3 Z CDK9/cyclin K n/a 1.0 L PRKG1 Km app -2.7 Z
# NEK2 Km app 17.8 Z CSNK1G3 (CK1 gamma 3) Km app 4.2 Z NUAK2 n/a 1.0 L KIT T670E n/a -2.8 L
# ALK Km app 17.3 Z STK32C (YANK3) n/a 4.2 L CDK2/cyclin O n/a 0.9 L ERBB4 (HER4) Km app -2.8 Z
# FGFR3 K650M n/a 16.5 L STK22D (TSSK1) Km app 4.2 Z CAMKK2 (CaMKK beta) n/a 0.9 L PLK4 n/a -2.8 L
# SIK3 n/a 16.1 L TAOK3 (JIK) n/a 4.2 L FGFR3 Km app 0.9 Z GRK7 Km app -3.0 Z
# LYN A Km app 15.2 Z RPS6KA4 (MSK2) Km app 4.2 Z ULK2 n/a 0.9 L MAPKAPK2 Km app -3.1 Z
# BMPR1B (ALK6) n/a 14.5 L PTK2B (FAK2) Km app 4.2 Z KIT D816V n/a 0.9 L FGFR4 Km app -3.1 Z
# INSRR (IRR) Km app 14.1 Z CLK2 Km app 4.1 Z CAMK1 (CaMK1) 10 0.8 A CASK n/a -3.1 L
# PLK2 Km app 14.1 Z STK24 (MST3) Km app 4.1 Z PTK6 (Brk) Km app 0.7 Z GRK5 Km app -3.2 Z
# PRKACA (PKA) Km app 14.0 Z CAMK1D (CaMKI delta) Km app 4.1 Z CAMK2B (CaMKII beta) Km app 0.7 Z EGFR (ErbB1) T790M Km app -3.3 Z
# EIF2AK2 (PKR) n/a 13.3 L INSR Km app 4.1 Z ACVR1 (ALK2) n/a 0.7 L PAK4 Km app -3.3 Z
# PRKX Km app 12.5 Z IRAK1 Km app 4.0 A ABL1 H396P n/a 0.6 L DAPK3 (ZIPK) Km app -3.4 Z
# FGR Km app 12.1 Z SRC N1 Km app 3.9 Z MERTK (cMER) A708S n/a 0.6 L RET M918T n/a -3.5 L
# CLK1 Km app 11.7 Z SRPK2 Km app 3.9 Z MAPKAPK5 (PRAK) Km app 0.6 Z PRKCQ (PKC theta) Km app -3.7 Z
# MARK3 Km app 11.4 Z RPS6KA6 (RSK4) Km app 3.8 Z AKT1 (PKB alpha) Km app 0.5 Z CAMKK1 (CAMKKA) n/a -3.8 L
# PDGFRB (PDGFR beta) Km app 11.0 Z GRK6 Km app 3.7 Z NTRK3 (TRKC) Km app 0.4 Z FLT3 D835Y Km app -3.9 Z
# PRKCN (PKD3) Km app 10.7 Z PKN1 (PRK1) Km app 3.6 Z ZAP70 Km app 0.3 Z ROCK2 Km app -4.1 Z
# STK16 (PKL12) n/a 10.5 L MAP3K8 (COT) 100 3.5 Z CSNK1A1 (CK1 alpha 1) Km app 0.3 Z CHUK (IKK alpha) Km app -4.2 A
# FES (FPS) Km app 10.4 Z FLT4 (VEGFR3) Km app 3.5 Z MYLK (MLCK) n/a 0.2 L AXL Km app -4.2 Z
# ABL1 Km app 10.4 Z GRK4 Km app 3.5 Z MKNK2 (MNK2) n/a 0.2 L PIM2 Km app -4.3 Z
# MUSK Km app 10.3 Z FRK (PTK5) Km app 3.4 Z AMPK (A1/B1/G3) n/a 0.2 L PAK1 Km app -4.4 Z
# MAPK1 (ERK2) Km app 10.1 Z FYN A n/a 3.3 L MAP3K2 (MEKK2) n/a 0.1 L BMPR1A (ALK3) n/a -4.4 L
# BRAF 100 9.9 Z CDK1/cyclin A2 n/a 3.3 L CDK8/cyclin C n/a 0.1 L STK4 (MST1) Km app -4.4 Z
# IGF1R Km app 9.7 Z KIT V559D T670I n/a 3.1 L MARK2 Km app 0.1 Z PRKCH (PKC eta) Km app -4.6 Z
# MAPK14 (p38 alpha) Km app 9.7 Z SPHK2 10 3.1 A ICK n/a 0.0 L SGKL (SGK3) Km app -4.6 Z
# LCK Km app 9.6 Z FGFR3 G697C n/a 3.1 L FGFR2 Km app 0.0 Z PI4KB (PI4K beta) Km app -4.7 A
# MAPK11 (p38 beta) Km app 9.5 Z RIPK2 n/a 3.1 L AKT2 (PKB beta) Km app 0.0 Z PRKCE (PKC epsilon) Km app -4.9 Z
# SRC Km app 9.5 Z PAK6 Km app 3.0 Z EPHB2 Km app -0.1 Z PHKG1 Km app -5.0 Z
# CHEK1 (CHK1) Km app 9.3 Z LYN B Km app 3.0 Z TGFBR2 n/a -0.1 L PDGFRA D842V Km app -5.0 Z
# CAMK2D (CaMKII delta) Km app 9.3 Z DAPK2 n/a 2.9 L TEK (Tie2) Km app -0.1 Z PRKG2 (PKG2) Km app -5.1 Z
# PLK1 Km app 9.2 Z EPHA4 Km app 2.9 Z AURKA (Aurora A) Km app -0.1 Z TYRO3 (RSE) Km app -5.1 Z
# RET Y791F Km app 9.2 Z PIK3CG (p110 gamma) Km app 2.9 A KIT D816H n/a -0.2 L TAOK2 (TAO1) Km app -5.1 Z
# FLT3 Km app 9.1 Z HIPK1 (Myak) Km app 2.8 Z KIT N822K n/a -0.2 L EPHB4 Km app -5.3 Z
# MAPK10 (JNK3) 100 9.0 Z ADRBK2 (GRK3) Km app 2.8 Z PRKACG (PRKAC gamma) n/a -0.2 L AURKC (Aurora C) Km app -5.4 Z
# CSNK2A2 (CK2 alpha 2) Km app 8.7 Z STK17B (DRAK2) n/a 2.7 L TEK (TIE2) Y1108F n/a -0.3 L JAK1 Km app -5.7 Z […]
# T1 sequence (Q8IVH8 whole entry): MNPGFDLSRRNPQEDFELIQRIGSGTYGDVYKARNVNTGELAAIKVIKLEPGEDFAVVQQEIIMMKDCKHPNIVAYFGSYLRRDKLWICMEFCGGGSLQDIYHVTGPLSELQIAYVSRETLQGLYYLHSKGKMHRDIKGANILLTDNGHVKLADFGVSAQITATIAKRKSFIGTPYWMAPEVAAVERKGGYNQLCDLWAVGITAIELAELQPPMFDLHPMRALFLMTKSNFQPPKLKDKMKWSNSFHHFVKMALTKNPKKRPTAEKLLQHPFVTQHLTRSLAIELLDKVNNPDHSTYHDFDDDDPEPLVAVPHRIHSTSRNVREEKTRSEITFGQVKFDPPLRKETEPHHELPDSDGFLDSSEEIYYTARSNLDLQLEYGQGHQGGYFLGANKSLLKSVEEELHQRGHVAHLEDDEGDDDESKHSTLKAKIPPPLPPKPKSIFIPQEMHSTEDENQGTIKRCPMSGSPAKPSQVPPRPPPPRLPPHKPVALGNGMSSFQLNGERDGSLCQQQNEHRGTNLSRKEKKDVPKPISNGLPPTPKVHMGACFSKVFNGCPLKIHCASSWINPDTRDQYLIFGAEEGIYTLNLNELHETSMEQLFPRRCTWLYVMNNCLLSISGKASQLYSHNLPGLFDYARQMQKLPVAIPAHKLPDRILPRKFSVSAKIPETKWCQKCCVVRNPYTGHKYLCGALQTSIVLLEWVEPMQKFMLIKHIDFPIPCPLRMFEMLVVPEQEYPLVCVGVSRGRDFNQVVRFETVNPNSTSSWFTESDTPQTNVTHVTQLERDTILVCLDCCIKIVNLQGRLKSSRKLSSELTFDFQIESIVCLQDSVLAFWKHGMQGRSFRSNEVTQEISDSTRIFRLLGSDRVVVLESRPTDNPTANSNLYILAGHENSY
smiles,measurement,value
CN(C(=O)CN1CCOCC1)c1ccc2sc3c(-c4cccc5c(=O)cc(N6CC7CCC(C6)O7)oc45)cccc3c2c1 [NU5455],% displacement,-2.1%

# — PMC6934184, “Selective DNA-PKcs inhibition extends the therapeutic index of localized radiotherapy and chemotherapy” (The Journal of Clinical Investigation, 2019)
